Data published in patent US10131664B2 (Celgene Quanticel Research, Inc., priority 2013, dated 2018).
Counter-ions that a name gives are not always drawn. Like-named read-outs stand apart in the source and are kept apart here.

How the values were obtained:
[1] = biological target: full-length human LSD1 (Homo sapiens (Human), UniProt O60341); assay: In vitro enzyme inhibition assay LSD-1 (TR-FRET); assay type: biochemical; settings: TR-FRET, 0.1 nM LSD1, 50 nM H3K4me1-biotin peptide, 2 μM FAD, pH7.3; read-out: LSD1 IC50
Description: This assay determines the ability of a test compound to inhibit LSD1 demethylase activity.
The enzymatic assay of LSD1 activity is based on Time Resolved-Fluorescence Resonance Energy Transfer (TR-FRET) detection.
The ability of the compounds disclosed herein to inhibit LSD1 activity was quantified and the respective IC50 value was determined. Table 5 provides the IC50 values of various substituted heterocyclic compounds disclosed herein.

[2] = test system: THP-1 (AML) cells; assay: LSD1 CD11b cellular assay (flow cytometry); assay type: cell-based; settings: CD11b expression in THP-1 (AML) cells, flow cytometry, 4 days incubation, read-out: Cellular IC50
Description: To analyze LSD1 inhibitor efficacy in cells, a CD11b flow cytometry assay was performed. LSD1 inhibition induces CD11b expression in THP-1 (AML) cells which can be measured by flow cytometry. […] LSD1 test compounds were serially diluted in DMSO. The dilutions were added to each well accordingly to a final concentration of 0.2% DMSO. The cells were incubated at 37° C. in 5% CO2 for 4 days. 250 μL of each well was transferred to a well in a 96 well round bottom plate. The plate was centrifuged at 1200 rpm at 4 degrees Celsius in a Beckman Coulter Alegra 6KR centrifuge for 5 min. The media was removed leaving the cells at the bottom of the wells. The cells were washed in 100 μL cold HBSS (Hank's Balanced Salt Solution) plus 2% BSA (Bovine Serum Albumin) solution and centrifuged at 1200 rpm at 4° C. for 5 min. The wash was removed. […] The cells were centrifuged and washed two times in 100 μl HBSS plus 2% BSA. After the final spin the cells were resuspended in 100 μL HBSS plus 2% BSA containing 1 μg/mL DAPI (4′,6-diamidino-2-phenylindole). The cells were then analyzed by flow cytometry in a BD FACSAria machine. Cells were analyzed for CD11b expression. The percent of CD11b expressing cells for each inhibitor concentration was used to determine an IC50 curve for each compound analyzed.

Q: For `Cn1ncc2cc(-c3cnc(N4CCC5CNCC5CC4)nc3-c3ccc(C#N)cc3)cnc21` (stereo not shown) [Example 65, 4-[2-(2,3,3a,4,5,7,8,8a-octahydro-1H-pyrrolo[3,4-d]azepin-6-yl)-5-(1-methylpyrazolo[3,4-b]pyridin-5-yl)pyrimidin-4-yl]benzonitrile], which IC50 [1] is on record?
A: < 100 nM

Q: What about the IC50 ([2]; Homo sapiens, 96 h) of the same compound?
A: < 100 nM

Q: `Cn1ncc2cc(-c3cnc(N4CCC(N)CC4)nc3-c3ccc(C#N)cc3)ccc21` [Example 116, 4-[2-(4-aminopiperidin-1-yl)-5-(1-methylindazol-5-yl)pyrimidin-4-yl]benzonitrile] was tested. Which IC50 [1] did it give?
A: < 100 nM

Q: And the IC50 ([2]; Homo sapiens, 96 h)?
A: < 100 nM

Q: Which results are given for `N#Cc1ccc(-c2nc(N3CCC(N)CC3)ncc2C#CC2(O)CCOC2)cc1F` (stereo not shown) [Example 94, 4-[2-(4-aminopiperidin-1-yl)-5-[2-(3-hydroxyoxolan-3-yl)ethynyl]pyrimidin-4-yl]-2-fluorobenzonitrile]?
A: IC50 [1]: < 100 nM; IC50 ([2]; Homo sapiens, 96 h): < 100 nM

Q: Which IC50 [1] does the source give for `N#Cc1ccc(-c2nc(N3CCC(N)CC3)ncc2-c2ccc(OCC3CC3)nc2)cc1` [Example 124, 4-[2-(4-aminopiperidin-1-yl)-5-[6-(cyclopropylmethoxy)pyridin-3-yl]pyrimidin-4-yl]benzonitrile] here?
A: < 100 nM

Q: And the IC50 ([2]; Homo sapiens, 96 h)?
A: < 100 nM

Q: `CNc1nc(N2CC[C@@H](N)[C@@H](F)C2)nc(-c2ccc(C#N)cc2)c1-c1ccc2nn(C)cc2c1` [Example 177, 4-{2-[(3S,4R)-4-amino-3-fluoropiperidin-1-yl]-5-(2-methyl-2H-indazol-5-yl)-6-(methylamino)pyrimidin-4-yl}benzonitrile] was tested. Which IC50 [1] did it give?
A: < 100 nM

Q: What about the IC50 ([2]; Homo sapiens, 96 h) of the same compound?
A: < 100 nM

Q: `Cn1cnc2cc(-c3cnc(N4CCC5(CCNC5)CC4)nc3-c3ccc(C#N)c(F)c3)cnc21` [Example 137, 4-[2-(2,8-diazaspiro[4.5]decan-8-yl)-5-(3-methylimidazo[4,5-b]pyridin-6-yl)pyrimidin-4-yl]-2-fluorobenzonitrile] was tested. Which IC50 [1] did it give?
A: < 100 nM

Q: And the IC50 ([2]; Homo sapiens, 96 h)?
A: < 100 nM

Q: How did the IC50 [1] turn out when `COc1ccc(-c2cnc(N3CCC(N)CC3)nc2-c2ccc(C#N)cc2)cc1` [Example 83, 4-[2-(4-aminopiperidin-1-yl)-5-(4-methoxyphenyl)pyrimidin-4-yl]benzonitrile] was run?
A: < 100 nM

Q: And the IC50 ([2]; Homo sapiens, 96 h)?
A: < 100 nM

Q: Which results are given for `Cn1ncc2cc(-c3cnc(N4CCC(N)C(O)C4)nc3-c3ccc(C#N)c(F)c3)ccc21` (stereo not shown) [Example 104, 4-[2-(4-amino-3-hydroxypiperidin-1-yl)-5-(1-methylindazol-5-yl)pyrimidin-4-yl]-2-fluorobenzonitrile]?
A: IC50 [1]: < 100 nM; IC50 [2]: < 100 nM

Q: With `Cn1cnc2cc(-c3cnc(N4CCC(N)CC4)nc3-c3ccc(C#N)c(F)c3)c(F)cc21` [Example 133, 4-[2-(4-aminopiperidin-1-yl)-5-(6-fluoro-1-methylbenzimidazol-5-yl)pyrimidin-4-yl]-2-fluorobenzonitrile] as the compound, how does the IC50 [1] read?
A: < 100 nM

Q: What about the IC50 ([2]; Homo sapiens, 96 h) of the same compound?
A: < 100 nM

Q: How did the IC50 [1] turn out when `Cn1ccc2nc(-c3cnc(N4CCC(N)CC4)nc3-c3ccc(C#N)cc3)ccc21` [Example 77, 4-[2-(4-aminopiperidin-1-yl)-5-(1-methylpyrrolo[3,2-b]pyridin-5-yl)pyrimidin-4-yl]benzonitrile] was run?
A: < 100 nM

Q: And the IC50 ([2]; Homo sapiens, 96 h)?
A: 100 to 1000 nM

Q: Which results are given for `CNc1nc(N2CCC(N)CC2)nc(-c2ccc(C#N)c(F)c2)c1-c1ccc2c(c1)nnn2C` [Example 165, 4-[2-(4-aminopiperidin-1-yl)-5-(1-methyl-1H-1,2,3-benzotriazol-5-yl)-6-(methylamino)pyrimidin-4-yl]-2-fluorobenzonitrile]?
A: IC50 [1]: < 100 nM; IC50 ([2]; Homo sapiens, 96 h): < 100 nM

Q: How did the IC50 [1] turn out when `CNc1nc(N2CCC(N)CC2)nc(-c2ccc(C#N)c(F)c2)c1-c1ccc(N(C)C)nc1` [Example 169, 4-[2-(4-aminopiperidin-1-yl)-5-[6-(dimethylamino)pyridin-3-yl]-6-(methylamino)pyrimidin-4-yl]-2-fluorobenzonitrile] was run?
A: < 100 nM

Q: And the IC50 ([2]; Homo sapiens, 96 h)?
A: < 100 nM

Q: What does the source list for `N#Cc1ccc(-c2nc(N3CCC4CNCC4CC3)ncc2-c2ccc3cn[nH]c3c2)cc1` (stereo not shown) [Example 117, 4-[2-(2,3,3a,4,5,7,8,8a-octahydro-1H-pyrrolo[3,4-d]azepin-6-yl)-5-(1H-indazol-6-yl)pyrimidin-4-yl]benzonitrile]?
A: IC50 [1]: < 100 nM; IC50 ([2]; Homo sapiens, 96 h): < 100 nM

Q: Which results are given for `COc1nc(N2CCCC(N)CC2)nc(-c2ccc(C#N)c(F)c2)c1-c1ccc2nn(C)cc2c1` (stereo not shown) [Example 149, 4-[2-(4-aminoazepan-1-yl)-6-methoxy-5-(2-methyl-2H-indazol-5-yl)pyrimidin-4-yl]-2-fluorobenzonitrile]?
A: IC50 [1]: < 100 nM; IC50 ([2]; Homo sapiens, 96 h): < 100 nM

Q: With `COc1ccc(-c2nc3ccn(CC4CCNC4)c3cc2-c2ccc(C#N)c(F)c2)cc1F` (stereo in doubt) [Example 55, 4-{1-[((3R)pyrrolidin-3-yl)methyl]-5-(3-fluoro-4-methoxyphenyl)pyrrolo[3,2-b]pyridin-6-yl}-2-fluorobenzenecarbonitrile, HCl salt] as the compound, how does the IC50 [1] read?
A: < 100 nM

Q: And the IC50 ([2]; Homo sapiens, 96 h)?
A: < 100 nM

Q: Which IC50 [1] does the source give for `Cn1ccc(C#Cc2cnc(N3CCC(N)CC3)nc2-c2ccc(C#N)c(F)c2)n1` [Example 99, 4-[2-(4-aminopiperidin-1-yl)-5-[2-(1-methylpyrazol-3-yl)ethynyl]pyrimidin-4-yl]-2-fluorobenzonitrile] here?
A: < 100 nM

Q: And the IC50 ([2]; Homo sapiens, 96 h)?
A: < 100 nM

Q: How did the IC50 [1] turn out when `Cn1cc2ncc(-c3cnc(N4CCC(N)CC4)nc3-c3ccc(C#N)cc3)cc2n1` [Example 76, 4-[2-(4-aminopiperidin-1-yl)-5-(2-methylpyrazolo[4,3-b]pyridin-6-yl)pyrimidin-4-yl]benzonitrile] was run?
A: < 100 nM

Q: And the IC50 ([2]; Homo sapiens, 96 h)?
A: 100 to 1000 nM

Q: With `Cn1ncc2cc(-c3cnc(N4CCC(N)C(F)C4)nc3-c3ccc(C#N)c(F)c3)ccc21` (stereo not shown) [Example 111, 4-[2-(4-amino-3-fluoropiperidin-1-yl)-5-(1-methylindazol-5-yl)pyrimidin-4-yl]-2-fluorobenzonitrile] as the compound, how does the IC50 [1] read?
A: < 100 nM

Q: And the IC50 ([2]; Homo sapiens, 96 h)?
A: < 100 nM

Q: Which IC50 [1] does the source give for `N#Cc1ccc(-c2nc(N3CCC(N)CC3)ncc2-c2ccc(OCC(F)(F)F)nc2)cc1` [Example 131, 4-[2-(4-aminopiperidin-1-yl)-5-[6-(2,2,2-trifluoroethoxy)pyridin-3-yl]pyrimidin-4-yl]benzonitrile] here?
A: < 100 nM

Q: What about the IC50 ([2]; Homo sapiens, 96 h) of the same compound?
A: 100 to 1000 nM

Q: Which IC50 [1] does the source give for `COc1ccc(-c2cnc(N3CCC(N)CC3)nc2-c2ccc(C#N)cc2)cn1` [Example 123, 4-[2-(4-aminopiperidin-1-yl)-5-(6-methoxypyridin-3-yl)pyrimidin-4-yl]benzonitrile] here?
A: < 100 nM

Q: What about the IC50 ([2]; Homo sapiens, 96 h) of the same compound?
A: < 100 nM

Q: Which IC50 [1] does the source give for `Cn1cc(C#Cc2cnc(N3CCC(N)CC3)nc2-c2ccc(C#N)c(F)c2)cn1` [Example 102, 4-[2-(4-aminopiperidin-1-yl)-5-[2-(1-methylpyrazol-4-yl)ethynyl]pyrimidin-4-yl]-2-fluorobenzonitrile] here?
A: < 100 nM

Q: What about the IC50 ([2]; Homo sapiens, 96 h) of the same compound?
A: < 100 nM

Q: `N#Cc1ccc(-c2nc(NC[C@H]3CCNC3)ncc2C#CC2CC2)cc1` [Example 26, 4-[5-(2-cyclopropylethynyl)-2-{[(3S)-pyrrolidin-3-ylmethyl]amino}pyrimidin-4-yl]benzonitrile] was tested. Which IC50 [1] did it give?
A: < 100 nM

Q: What about the IC50 ([2]; Homo sapiens, 96 h) of the same compound?
A: 100 to 1000 nM

Q: Which results are given for `Cc1ccc(-c2cnc(N[C@@H]3C[C@H]4CNC[C@H]4C3)nc2-c2ccc(C#N)cc2)cc1` [Example 27, 4-(2-{[(3aR,5S,6aS)-octahydrocyclopenta[c]pyrrol-5-yl]amino}-5-(4-methylphenyl)pyrimidin-4-yl)benzonitrile]?
A: IC50 [1]: 100 to 1000 nM; IC50 ([2]; Homo sapiens, 96 h): 100 to 1000 nM
